Broadly, the IC50 is the point on the concentration scale where inhibition reaches its midpoint.

Sequence of EGFR Kinase (P00533 25-1210): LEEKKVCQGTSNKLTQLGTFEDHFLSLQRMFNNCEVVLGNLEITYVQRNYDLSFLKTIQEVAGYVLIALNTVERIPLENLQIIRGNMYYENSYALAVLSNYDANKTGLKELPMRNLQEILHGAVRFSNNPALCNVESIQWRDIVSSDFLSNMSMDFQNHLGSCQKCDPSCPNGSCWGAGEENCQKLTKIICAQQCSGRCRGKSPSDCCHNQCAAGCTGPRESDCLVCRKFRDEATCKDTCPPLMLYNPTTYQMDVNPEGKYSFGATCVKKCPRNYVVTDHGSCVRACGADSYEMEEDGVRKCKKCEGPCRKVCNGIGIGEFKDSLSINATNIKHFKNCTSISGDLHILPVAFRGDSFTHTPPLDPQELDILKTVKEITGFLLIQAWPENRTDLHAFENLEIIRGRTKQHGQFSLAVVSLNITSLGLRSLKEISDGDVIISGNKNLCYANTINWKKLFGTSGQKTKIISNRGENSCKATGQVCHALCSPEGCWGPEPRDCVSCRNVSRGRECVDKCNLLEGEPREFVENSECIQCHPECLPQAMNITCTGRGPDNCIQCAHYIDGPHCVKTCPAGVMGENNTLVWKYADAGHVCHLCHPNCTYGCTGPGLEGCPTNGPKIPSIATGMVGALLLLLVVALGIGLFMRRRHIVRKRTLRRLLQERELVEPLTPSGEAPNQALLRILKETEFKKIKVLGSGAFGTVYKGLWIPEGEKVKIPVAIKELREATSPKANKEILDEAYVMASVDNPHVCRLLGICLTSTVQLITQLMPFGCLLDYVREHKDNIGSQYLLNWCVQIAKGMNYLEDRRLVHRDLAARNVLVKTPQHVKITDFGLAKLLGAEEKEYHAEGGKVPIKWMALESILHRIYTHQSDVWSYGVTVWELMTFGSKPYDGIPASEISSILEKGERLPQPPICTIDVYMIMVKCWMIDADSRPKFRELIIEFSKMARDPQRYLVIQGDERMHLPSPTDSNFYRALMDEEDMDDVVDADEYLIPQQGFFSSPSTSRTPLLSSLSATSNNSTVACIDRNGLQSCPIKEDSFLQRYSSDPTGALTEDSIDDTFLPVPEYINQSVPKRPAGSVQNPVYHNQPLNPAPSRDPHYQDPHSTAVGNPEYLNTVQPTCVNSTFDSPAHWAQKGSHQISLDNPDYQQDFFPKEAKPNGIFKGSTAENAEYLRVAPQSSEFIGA

This test concerns the target EGFR Kinase (Homo sapiens, UniProt P00533). In words: EGFR inhibitory activity test (HTRF kinEASE STK S1 kinase assay). Format: biochemical. Particulars: replicate wells, read-out: IC50(nM), Inhibitory Activity of Compounds on EGFR Kinase. The protocol:
In a pilot study, the compounds disclosed herein were screened for their EGFR inhibitory activity. The Cisbio Research Product HTRF kinEASE STK S1 kinase assay/inhibitor screening Kit, can detect the generation of the phosphorylated substrate. Kinase, biotinylated substrate and ATP were first added into buffer solution, and the phosphorylated biotinylated substrates were formed by enzyme reaction. Then, to the above solution was added europium-labeled anti-phospho-site specific antibodies and XL665-labeled avidin. The Specific combinations of antibody with antigen, and biotin with avidin, bring the europium and XL665 closer together and resonance energy transferred. The signals at 620 nm and 665 nm were detected, and the activity of the kinase was evaluated by the ratio of the two signals value.
In general terms: In TR-FRET formats the signal depends on donor and acceptor labels being close together.
With `COc1cc2ncnc(Nc3ccc(F)c(Cl)c3)c2cc1OCCCN1CCc2noc(C)c2C1` [Example 24, N-(3-chloro-4-fluorophenyl)-7-methoxy-6-(3-(3-methyl-6,7-dihydroisoxazolo[4,3-c]pyridin-5(4H)-yl)propoxy)quinazolin-4-amine], the half-maximal inhibitory concentration (IC50) is 0.001 to 0.1 nM.

As to `COc1cc2ncnc(Nc3ccc(F)c(Cl)c3)c2cc1OCCCN1CC2CCCNC2C1` (stereo not drawn) [Example 25, N-(3-chloro-4-fluorophenyl)-6-(3-(hexahydro-1H-pyrrolo[3,4-b]pyridin-6(2H)-yl)propoxy)-7-methoxyquinazolin-4-amine], the IC50 is 0.001 to 0.1 nM.

Consider `COc1cc2ncnc(Nc3ccc(F)c(Cl)c3)c2cc1OCCCN1CCCC2CNCC21` (stereo not drawn) [Example 26, N-(3-chloro-4-fluorophenyl)-7-methoxy-6-(3-(octahydro-1H-pyrrolo[3,4-b]pyridin-1-yl)propoxy) quinazolin-4-amine], for which the IC50 lay within 0.001 to 0.1 nM.

With `COc1cc2ncnc(Nc3ccc(F)c(Cl)c3)c2cc1OCCCN1CCCC2CN(C)CC21` (stereo not drawn) [Example 27, N-(3-chloro-4-fluorophenyl)-7-methoxy-6-(3-(6-methyloctahydro-1H-pyrrolo[3,4-b]pyridin-1-yl)propoxy)quinazolin-4-amine], the IC50 fell in the range of 0.001 to 0.1 nM.

On to `COc1cc2ncnc(Nc3ccc(F)c(Cl)c3)c2cc1OCCCN1CC2CCCN(C)C2C1` (stereo not drawn) [Example 28, N-(3-chloro-4-fluorophenyl)-7-methoxy-6-(3-(1-methylhexahydro-1H-pyrrolo[3,4-b]pyridin-6(2H)-yl)propoxy)quinazolin-4-amine], for which the half-maximal inhibitory concentration (IC50) was in the range of 0.001 to 0.1 nM.

Take `CCN1CC2CCCN(CCCOc3cc4c(Nc5ccc(F)c(Cl)c5)ncnc4cc3OC)C2C1` (stereo not drawn) [Example 29, N-(3-chloro-4-fluorophenyl)-6-(3-(6-ethyloctahydro-1H-pyrrolo[3,4-b]pyridin-1-yl)propoxy)-7-methoxyquinazolin-4-amine]: the IC50 lay within 0.001 to 0.1 nM.

For `COc1cc2ncnc(Nc3ccc(F)c(Cl)c3)c2cc1OCCCN1CCCC2OCCCC21` (stereo not drawn) [Example 31, N-(3-chloro-4-fluorophenyl)-6-(3-(hexahydro-2H-pyrano[3,2-b]pyridin-5(3H)-yl)propoxy)-7-methoxyquinazolin-4-amine], the IC50 fell in the range of 0.001 to 0.1 nM.

For `COc1cc2ncnc(Nc3ccc(F)c(Cl)c3)c2cc1OCCCN1CC2C(C1)C2N(C)C` (stereo not drawn) [Example 32, N-(3-chloro-4-fluorophenyl)-6-(3-(6-(dimethylamino)-3-azabicyclo[3.1.0]hexan-3-yl)propoxy)-7-methoxyquinazolin-4-amine], the IC50 is 1 to 10 nM.

With `COc1cc2ncnc(Nc3ccc(F)c(Cl)c3)c2cc1OCCCN1CCC2CCNCC2C1` (stereo not drawn) [Example 33, N-(3-chloro-4-fluorophenyl)-7-methoxy-6-(3-(octahydro-2,7-naphthyridin-2(1H)-yl)propoxy) quinazolin-4-amine], the 50% inhibitory concentration (IC50) fell in the range of 0.001 to 0.1 nM.

Regarding `CCN1CCCC2CN(CCCOc3cc4c(Nc5ccc(F)c(Cl)c5)ncnc4cc3OC)CC21` (stereo not drawn) [Example 34, N-(3-chloro-4-fluorophenyl)-6-(3-(1-ethylhexahydro-1H-pyrrolo[3,4-b]pyridin-6(2H)-yl)propoxy)-7-methoxyquinazolin-4-amine], the IC50 fell in the range of 0.001 to 0.1 nM.

Regarding `COc1cc2ncnc(Nc3ccc(F)c(Cl)c3)c2cc1OCCCN1CCC2CCCCC2C1` (stereo not drawn) [Example 35, N-(3-chloro-4-fluorophenyl)-7-methoxy-6-(3-(octahydroisoquinolin-2(1H)-yl)propoxy)quinazolin-4-amine], the IC50 lay in the range of 0.001 to 0.1 nM.

`COc1cc2ncnc(Nc3ccc(F)c(Cl)c3)c2cc1OCCCN1CCC2OCCOC2C1` (stereo not drawn) [Example 36, N-(3-chloro-4-fluorophenyl)-6-(3-(hexahydro-[1,4]dioxino[2,3-c]pyridin-6(7H)-yl)propoxy)-7-methoxyquinazolin-4-amine]: the IC50 is 1 to 10 nM.

Regarding `COc1cc2ncnc(Nc3ccc(F)c(Cl)c3)c2cc1OCCCN1CCC2COCC2C1` (stereo not drawn) [Example 37, N-(3-chloro-4-fluorophenyl)-6-(3-(hexahydrofuro[3,4-c]pyridin-5(3H)-yl)propoxy)-7-methoxy quinazolin-4-amine], the IC50 lay within 1 to 10 nM.

Consider `COc1cc2ncnc(Nc3ccc(F)c(Cl)c3)c2cc1OCCCN1CCc2c(c(C)nn2C)C1` [Example 38, N-(3-chloro-4-fluorophenyl)-6-(3-(1,3-dimethyl-6,7-dihydro-1H-pyrazolo[4,3-c]pyridin-5(4H)-yl)propoxy)-7-methoxyquinazolin-4-amine], for which the IC50 is 0.101 to 1 nM.

As for `COc1cc2ncnc(Nc3ccc(F)c(Cl)c3)c2cc1OCCCN1CCc2nn(C)c(C)c2C1` [Example 39, N-(3-chloro-4-fluorophenyl)-6-(3-(2,3-dimethyl-6,7-dihydro-2H-pyrazolo[4,3-c]pyridine-5(4H)-yl)propoxy)-7-methoxyquinazolin-4-amine], the IC50 lay within 1 to 10 nM.

Turning to `COc1cc2ncnc(Nc3ccc(F)c(Cl)c3)c2cc1OCCCN1C[C@@H]2OCCO[C@H]2C1` [Example 40, N-(3-chloro-4-fluorophenyl)-7-methoxy-6-(3-((4aS,7aS)-tetrahydro-2H-[1,4]dioxino[2,3-c]pyrrol-6(3H)-yl)propoxy)quinazolin-4-amine], the IC50 was 0.001 to 0.1 nM.

For the molecule `COc1cc2ncnc(Nc3ccc(F)cc3)c2cc1OCCCN1CC2CNCC2C1` (stereo not drawn) [Example 41, N-(4-fluorophenyl)-6-(3-(hexahydropyrrolo[3,4-c]pyrrol-2(1H)-yl)propoxy)-7-methoxyquinazolin-4-amine], the IC50 lay in the range of 0.001 to 0.1 nM.

On to `COc1cc2ncnc(Nc3ccc(F)cc3)c2cc1OCCCN1CCn2cnnc2C1` [Example 42, 6-(3-(5,6-dihydro-[1,2,4]triazolo[4,3-a]pyrazin-7(8H)-yl)propoxy)-N-(4-fluorophenyl)-7-methoxyquinazolin-4-amine], for which the IC50 was in the range of 1 to 10 nM.

For `COc1cc2ncnc(Nc3ccc(F)cc3)c2cc1OCCCN1CCC2COCC2C1` (stereo not drawn) [Example 43, N-(4-fluorophenyl)-6-(3-(hexahydrofuro[3,4-c]pyridin-5(3H)-yl)propoxy)-7-methoxyquinazolin-4-amine], the IC50 lay in the range of 0.101 to 1 nM.

Consider `C#Cc1cc(Nc2ncnc3cc(OC)c(OCCCN4CC5CNCC5C4)cc23)ccc1F` (stereo not drawn) [Example 44, N-(3-ethynyl-4-fluorophenyl)-6-(3-(hexahydropyrrolo[3,4-c]pyrrol-2(1H)-yl)propoxy)-7-methoxyquinazolin-4-amine], for which the IC50 was 0.101 to 1 nM.

For `C#Cc1cc(Nc2ncnc3cc(OC)c(OCCCN4CCn5cnnc5C4)cc23)ccc1F` [Example 45, 6-(3-(5,6-dihydro-[1,2,4]triazolo[4,3-a]pyrazin-7(8H)-yl)propoxy)-N-(3-ethynyl-4-fluorophenyl)-7-m ethoxyquinazolin-4-amine], the IC50 was 0.101 to 1 nM.

Values taken from patent US9181277B2, “Aminoquinazoline derivatives and their salts and methods of use” (SUNSHINE LAKE PHARMA CO., LTD., priority 2011, dated 2015).
